“And” between values parts separate entries of the source, which are not always exact repeats. Equal entries are not always repeated. Toxic doses and inconclusive results are not listed. Rule for the calls: active = survival T/C of 150% or more; inactive = T/C below 125% in these data.
System: CD2F1 mice, L1210 leukemia ip, survival T/C
Assay: NCI In Vivo Anticancer Drug Screen. Data for tumor model L1210 Leukemia (intraperitoneal) in CD2F1 (CDF1) mice
Details: higher = longer survival
Summary of the method: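 Implant tumor; dose compound or vehicle; measure endpoint in both groups; report treated divided by control.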

[1] = endpoint: mean survival time, dose: 12.5 mg/kg/injection, schedule: Q01DX009 (ip), vehicle: Klucel (hydroxypropylcellulose) (HPC)
[2] = endpoint: mean survival time, dose: 25.0 mg/kg/injection, schedule: Q01DX009 (ip), vehicle: Klucel (hydroxypropylcellulose) (HPC)
[3] = endpoint: mean survival time, dose: 50.0 mg/kg/injection, schedule: Q01DX009 (ip), vehicle: Klucel (hydroxypropylcellulose) (HPC)
[4] = endpoint: mean survival time, dose: 200.0 mg/kg/injection, schedule: Q01DX009 (ip), vehicle: Klucel (hydroxypropylcellulose) (HPC)
[5] = endpoint: mean survival time, dose: 100.0 mg/kg/injection, schedule: Q01DX001 (ip), vehicle: Klucel (hydroxypropylcellulose) (HPC)
[6] = endpoint: mean survival time, dose: 200.0 mg/kg/injection, schedule: Q01DX001 (ip), vehicle: Klucel (hydroxypropylcellulose) (HPC)
[7] = endpoint: mean survival time, dose: 400.0 mg/kg/injection, schedule: Q01DX001 (ip), vehicle: Klucel (hydroxypropylcellulose) (HPC)

Measured: T/C

CN1C(=O)CN=C(c2ccccc2)c2cc(Cl)ccc21
inactive: [1] 100 % of control | [2] 104 % of control | [3] 100 % of control | [4] 90 % of control

Cc1ccc([N+](=O)[O-])cc1NC(=O)Oc1ccc2c(C)cc(=O)oc2c1
inactive: endpoint: mean survival time, dose: 100.0 mg/kg/injection, schedule: Q04DX002 (ip), vehicle: Klucel (hydroxypropylcellulose) (HPC) 92 % of control | endpoint: mean survival time, dose: 200.0 mg/kg/injection, schedule: Q04DX002 (ip), vehicle: Klucel (hydroxypropylcellulose) (HPC) 100 % of control | endpoint: mean survival time, dose: 400.0 mg/kg/injection, schedule: Q04DX002 (ip), vehicle: Klucel (hydroxypropylcellulose) (HPC) 87 % of control

C=CC(C)(C)n1cc(C2=C(O)C(=O)C(c3cn(C(C)(C)C=C)c4ccccc34)=C(O)C2=O)c2ccccc21
inactive: endpoint: mean survival time, dose: 2.5 mg/kg/injection, schedule: Q01DX009 (ip), vehicle: Klucel (hydroxypropylcellulose) (HPC) 97 % of control | endpoint: mean survival time, dose: 2.5 mg/kg/injection, schedule: Q01DX009 (ip), vehicle: carboxymethylcellulose (CMC) 100 % of control | endpoint: mean survival time, dose: 5.0 mg/kg/injection, schedule: Q01DX009 (ip), vehicle: Klucel (hydroxypropylcellulose) (HPC) 93 % of control | endpoint: mean survival time, dose: 5.0 mg/kg/injection, schedule: Q01DX009 (ip), vehicle: carboxymethylcellulose (CMC) 100 % of control | endpoint: mean survival time, dose: 9.0 mg/kg/injection, schedule: Q01DX009 (ip), vehicle: carboxymethylcellulose (CMC) 96 % of control | endpoint: mean survival time, dose: 10.0 mg/kg/injection, schedule: Q01DX009 (ip), vehicle: Klucel (hydroxypropylcellulose) (HPC) 91 % of control | endpoint: mean survival time, dose: 10.0 mg/kg/injection, schedule: Q01DX009 (ip), vehicle: carboxymethylcellulose (CMC) 98 % of control | endpoint: mean survival time, dose: 18.0 mg/kg/injection, schedule: Q01DX009 (ip), vehicle: carboxymethylcellulose (CMC) 98 % of control | endpoint: mean survival time, dose: 20.0 mg/kg/injection, schedule: Q01DX009 (ip), vehicle: Klucel (hydroxypropylcellulose) (HPC) 93 % of control | endpoint: mean survival time, dose: 20.0 mg/kg/injection, schedule: Q01DX009 (ip), vehicle: carboxymethylcellulose (CMC) 98 % of control | endpoint: mean survival time, dose: 26.0 mg/kg/injection, schedule: Q01DX009 (ip), vehicle: carboxymethylcellulose (CMC) 94 % of control | endpoint: mean survival time, dose: 40.0 mg/kg/injection, schedule: Q01DX009 (ip), vehicle: Klucel (hydroxypropylcellulose) (HPC) 93 % of control | endpoint: mean survival time, dose: 40.0 mg/kg/injection, schedule: Q01DX009 (ip), vehicle: carboxymethylcellulose (CMC) 93 % of control | endpoint: mean survival time, dose: 60.0 mg/kg/injection, schedule: Q01DX009 (ip), vehicle: carboxymethylcellulose (CMC) 100 % of control | endpoint: median survival time, dose: 5.0 mg/kg/injection, schedule: Q01DX009 (ip), vehicle: Klucel (hydroxypropylcellulose) (HPC) 101 % of control | endpoint: median survival time, dose: 10.0 mg/kg/injection, schedule: Q01DX009 (ip), vehicle: Klucel (hydroxypropylcellulose) (HPC) 100 % of control and 102 % of control | endpoint: median survival time, dose: 20.0 mg/kg/injection, schedule: Q01DX009 (ip), vehicle: Klucel (hydroxypropylcellulose) (HPC) 97 % of control and 100 % of control | endpoint: median survival time, dose: 40.0 mg/kg/injection, schedule: Q01DX009 (ip), vehicle: Klucel (hydroxypropylcellulose) (HPC) 115 % of control and 109 % of control

COc1ccc2[nH]c3c(c2c1)CCNC3CC(C)CCC=C(C)C (stereo unspecified)
inactive: endpoint: mean survival time, dose: 6.25 mg/kg/injection, schedule: Q01DX009 (ip), vehicle: Klucel (hydroxypropylcellulose) (HPC) 100 % of control and 110 % of control | [1] 98 % of control and 102 % of control | [2] 97 % of control and 101 % of control | [3] 100 % of control and 103 % of control | endpoint: mean survival time, dose: 100.0 mg/kg/injection, schedule: Q01DX009 (ip), vehicle: Klucel (hydroxypropylcellulose) (HPC) 86 % of control and 100 % of control | [4] 108 % of control

O=[N+]([O-])c1ccc(N/N=C/c2ccccn2)cc1
inactive: endpoint: mean survival time, dose: 100.0 mg/kg/injection, schedule: Q04DX003 (ip), vehicle: Klucel (hydroxypropylcellulose) (HPC) 96 % of control | endpoint: mean survival time, dose: 200.0 mg/kg/injection, schedule: Q04DX003 (ip), vehicle: Klucel (hydroxypropylcellulose) (HPC) 89 % of control | endpoint: mean survival time, dose: 400.0 mg/kg/injection, schedule: Q04DX003 (ip), vehicle: Klucel (hydroxypropylcellulose) (HPC) 94 % of control

CO[C@H]1Nc2c(ccc(C)c2O)C(=O)N2C=C(/C=C/C(N)=O)C[C@@H]12
inactive: endpoint: mean survival time, dose: 0.1 mg/kg/injection, schedule: Q01DX015 (ip), vehicle: saline 111 % of control | endpoint: mean survival time, dose: 0.2 mg/kg/injection, schedule: Q01DX015 (ip), vehicle: saline 119 % of control | endpoint: mean survival time, dose: 0.25 mg/kg/injection, schedule: Q01DX009 (ip), vehicle: saline sonified 106 % of control | endpoint: mean survival time, dose: 0.36 mg/kg/injection, schedule: Q01DX015 (ip), vehicle: saline 120 % of control | endpoint: mean survival time, dose: 0.5 mg/kg/injection, schedule: Q01DX009 (ip), vehicle: saline sonified 104 % of control | endpoint: mean survival time, dose: 1.0 mg/kg/injection, schedule: Q01DX009 (ip), vehicle: saline sonified 91 % of control | endpoint: mean survival time, dose: 1.0 mg/kg/injection, schedule: Q04DX003 (ip), vehicle: saline with Tween-80 117 % of control | endpoint: mean survival time, dose: 1.5 mg/kg/injection, schedule: Q04DX003 (ip), vehicle: saline with Tween-80 118 % of control | endpoint: mean survival time, dose: 25.0 micrograms/kg/injection, schedule: Q01DX009 (ip), vehicle: saline with Tween-80 108 % of control | endpoint: mean survival time, dose: 50.0 micrograms/kg/injection, schedule: Q01DX009 (ip), vehicle: saline with Tween-80 117 % of control | endpoint: mean survival time, dose: 100.0 micrograms/kg/injection, schedule: Q01DX009 (ip), vehicle: saline with Tween-80 109 % of control | endpoint: mean survival time, dose: 200.0 micrograms/kg/injection, schedule: Q01DX009 (ip), vehicle: saline with Tween-80 117 % of control | endpoint: median survival time, dose: 0.01 mg/kg/injection, schedule: Q01DX005 (ip), vehicle: DMSO 102 % of control | endpoint: median survival time, dose: 0.02 mg/kg/injection, schedule: Q01DX005 (ip), vehicle: DMSO 117 % of control | endpoint: median survival time, dose: 0.04 mg/kg/injection, schedule: Q01DX005 (ip), vehicle: DMSO 118 % of control

CC1C(C(=O)c2ccc(-c3ccccc3)cc2)N1c1ccccc1 (stereo unspecified)
inactive: [5] 94 % of control | [6] 101 % of control | [7] 86 % of control

C[N+](C)(Cc1ccccc1)c1ccccc1
inactive: endpoint: mean survival time, dose: 10.0 mg/kg/injection, schedule: Q01DX009 (ip), vehicle: saline 109 % of control | endpoint: mean survival time, dose: 20.0 mg/kg/injection, schedule: Q01DX009 (ip), vehicle: saline 94 % of control

CC(C)C1=CCC(OC(=O)N=C=Nc2ccccc2)CC1 (stereo unspecified)
inactive: [5] 93 % of control | endpoint: mean survival time, dose: 100.0 mg/kg/injection, schedule: Q04DX002 (ip), vehicle: saline with Tween-80 90 % of control | [6] 91 % of control | endpoint: mean survival time, dose: 200.0 mg/kg/injection, schedule: Q04DX002 (ip), vehicle: saline with Tween-80 96 % of control | [7] 94 % of control | endpoint: mean survival time, dose: 400.0 mg/kg/injection, schedule: Q04DX002 (ip), vehicle: saline with Tween-80 93 % of control

CNC(=O)CCC(NC(=O)c1ccc(N(C)Cc2cnc3nc(N)nc(N)c3n2)cc1)C(=O)O (stereo unspecified)
inactive: endpoint: mean survival time, dose: 1.0 mg/kg/injection, schedule: Q01DX009 (ip), vehicle: sodium bicarbonate 103 % of control | endpoint: mean survival time, dose: 10.0 mg/kg/injection, schedule: Q01DX009 (ip), vehicle: sodium bicarbonate 113 % of control | endpoint: mean survival time, dose: 25.0 mg/kg/injection, schedule: Q01DX009 (ip), vehicle: sodium bicarbonate 121 % of control

COc1cc2ccc(CCN)cc2cc1OC
inactive: endpoint: mean survival time, dose: 12.5 mg/kg/injection, schedule: Q04DX003 (ip), vehicle: saline with Tween-80 102 % of control | endpoint: mean survival time, dose: 25.0 mg/kg/injection, schedule: Q04DX003 (ip), vehicle: saline with Tween-80 102 % of control | endpoint: mean survival time, dose: 50.0 mg/kg/injection, schedule: Q04DX003 (ip), vehicle: saline with Tween-80 96 % of control
